Consider four molecules from patent US12234212B2, “Peptide conjugates of microtubule-targeting agents as therapeutics” (Cybrexa 3, Inc., priority 2019, dated 2025).

One data set concerns HCT116. The data set can be described thus: Growth delay assay, HCT116. Format: cell-based, human. The following applies: HCT116 cells, 96 hours after addition of drug, cell count (Hoechst). The procedure: (§1) Cells were plated in 96 well black walled-clear bottom plates (Griener), DLD-1 WT cells at 2500 cells per well, FaDu, and HeLa cells at 5000 cells per well, and HCT116 at 3000 cells per well, in growth media containing […]. Cells were allowed to adhere at room temperature for 60 minutes before returning to a 37 C, 5% CO2 incubator. After 24 hours, media was removed and replaced with fresh growth media containing various drug concentrations. Each drug concentration was added in triplicate. Non-drug treated controls contained growth media only. Cells were returned to the incubator. Ninety-six hours after addition of drug, cells were fixed with […] for 20 minutes and stained with Hoechst at 1 μg/mL. The plates were imaged on a Cytation 5 auto imager (BioTek) and cells were counted using CellProfiler (http://cellprofiler.org). The percent cell growth delay was calculated and data plotted using GraphPad Prism

A further data set deals with HeLa cells. The data set can be described thus: Growth delay assay, HeLa. Format: cell-based. Conditions: 96 hours after addition of drug, cell count (Hoechst). The procedure: as §1
Data set [1] concerns nude mice bearing HCT116 colorectal flank tumors. The data set is described as follows: Mouse colorectal cancer model, Kaplan-Meier survival. Format: in vivo. Conditions: IP, QDX4; DM4 0.42 μmole/kg; Compound 5 0.21-0.42 μmole/kg; post-dosing period. On the procedure: Six-week-old female athymic nude Foxn^nu mice were obtained from Taconic Labs (Cat #NCRNU-F) and were housed 5 per cage on Alpha-Dri bedding in a disposable caging system. Human HCT116 cells derived from colorectal carcinoma were diluted 1:1 in Phenol Red-free Matrigel and subcutaneously implanted into the left flank of each mouse at a density of 2.5×10^6 cells in 100 μL. When xenografts reached a mean volume of 100-200 mm^3, mice were randomized into groups and treated as detailed in the table below. Mice were administered intraperitoneal (IP) doses of vehicle or 0.21, 0.29, 0.35, 0.42 μmole/kg Compound 5 (equivalent to 1.1, 1.4, 1.7, or 2 mg/kg Compound 5) or 0.42 μmole/kg unconjugated DM4 (equivalent to 0.33 mg/kg unconjugated DM4). Doses were prepared by diluting 0.1 mg/μL DMSO stocks in 5% mannitol in citrate buffer and were administered QDX4 with a two day interval between the second and third doses, at a volume of 12 mL/kg (300 μL per 25 g mouse). Xenograft tumors were measured by calipers and volume was calculated using the equation for ellipsoid volume: Volume=π/6×(length)×(width)^2. Body weight of animals was measured at the same time as tumor volume assessment. Animals were removed from the study due to death, tumor size exceeding 2000 mm^3 or loss of >20% body weight. Kaplan-Meier analysis was used to evaluate survival rate based on death or removal from study.

Data set [2] relates to T1, Biotin-labeled human tubulin derived from HeLa cells (β-tubulin).
T1 construct: fused on or other part: Biotin label, used for capture on a streptavidin sensor chip
The data set is described as follows: Kinetic analysis of conjugate binding (Biacore surface plasmon resonance). Conditions: Biacore S200, 25° C., immobilized tubulin; read-out: KD (affinity constant, steady state) for β-tubulin. On the procedure:
Binding experiments were performed using a Biacore S200 instrument. A Series S sensor chip with pre-immobilized streptavidin was conditioned with 1 M NaCl in 50 mM NaOH. Biotin-labeled human tubulin derived from HeLa cells was immobilized to the sensor chip at a concentration of 125 μg/mL in HBS-P+ buffer at a flow rate of 10 μl/min. A final 3000 RU (response units) of protein was directly immobilized to the chip. After tubulin immobilization, the sensor chip was washed with 50% isopropanol, 50 mM NaOH and 1 M NaCl and subsequently allowed to equilibrate in assay buffer for 4 hours. A streptavidin-biotin capture blank (reference FC) was used to monitor non-specific binding.
To collect kinetic binding data, Compound 5 diluted in assay buffer was injected over the flow cells at concentrations ranging from 100 μM to 0.048 μM and 50 μM to 0.024 μM, at a flow rate of 60 μL/minute and a temperature of 25° C. The complex was allowed to dissociate for 60 seconds. Binding of compound to tubulin was monitored in real time to obtain on (Ka) and off (Koff) rates. The affinity constant (KD) was calculated by steady state kinetics.

In a further data set the test system is FaDu. The data set is described as follows: Growth delay assay, FaDu. Format: cell-based. The following applies: FaDu cells, 96 hours after addition of drug, cell count (Hoechst). On the procedure: as §1
The test system of another data set is DLD-1 WT cells. The data set can be described thus: Growth delay assay, DLD-1. The format is cell-based. The following applies: DLD-1 cells, 96 hours after addition of drug, cell count (Hoechst). On the procedure: as §1

pIC50, pKd: −log10 of the molar value.

The pIC50 is −log10 of the IC50, conventionally taken in molar units. Higher therefore signals a low IC50. As usually defined, the pKd is the Kd on a negative log10 scale, so that one unit is a factor of ten. As for `COc1cc2cc(c1Cl)N(C)C(=O)C[C@H](OC(=O)[C@H](C)N(C)C(=O)CCC(C)(C)S)C1(C)O[C@H]1[C@H](C)[C@@H]1C[C@@](O)(NC(=O)O1)[C@H](OC)/C=C/C=C(\C)C2` (stereo partly drawn) [R^2SH-2, [(1S,2R,3S,6S,16E,18E,20R,21S)-11-chloro-21-hydroxy-12,20-dimethoxy-2,5,9,16-tetramethyl-8,23-dioxo-4,24-dioxa-9,22-diazatetracyclo[19.3.1.110,14.03,5]hexacosa-10,12,14(26),16,18-pentaen-6-yl] (2S)-2-[methyl-(4-methyl-4-sulfanyl-pentanoyl)amino]propanoate], the pIC50 was 9.70 in the data set with HCT116 (Homo sapiens, HCT-116); 10.70 in the data set with HeLa cells (Homo sapiens); 9.89 with FaDu (Homo sapiens); 9.35 in the data set with DLD-1 WT cells (Homo sapiens). In addition, the “survival / systemic toxicity (Kaplan-Meier)” value in data set [1] is given as “spontaneous death of half of the DM4 group of animals”. The pKd in data set [2] is 5.45.

For the molecule `COc1cc2cc(c1Cl)N(C)C(=O)C[C@H](OC(=O)[C@H](C)N(C)C(=O)CCSSC[C@H](NC(=O)[C@H](Cc1c[nH]c3ccccc13)NC(=O)[C@H](CC(C)C)NC(=O)[C@H](CC(C)C)NC(=O)[C@H](CC(=O)O)NC(=O)[C@H](CC(C)C)NC(=O)[C@H](CC(C)C)NC(=O)[C@H](CC(C)C)NC(=O)[C@@H](NC(=O)[C@H](CC(=O)O)NC(=O)[C@@H](NC(=O)[C@@H]1CCCN1C(=O)[C@H](Cc1ccccc1)NC(=O)[C@H](CC(C)C)NC(=O)[C@H](CC(C)C)NC(=O)[C@H](CC(=O)O)NC(=O)[C@H](CC(C)C)NC(=O)[C@H](Cc1ccc(O)cc1)NC(=O)[C@H](C)NC(=O)[C@H](CCCNC(=N)N)NC(=O)[C@H](Cc1c[nH]c3ccccc13)NC(=O)[C@@H]1CCCN1C(=O)[C@H](CC(N)=O)NC(=O)[C@H](CCC(N)=O)NC(=O)[C@H](CC(=O)O)NC(=O)[C@H](CC(=O)O)NC(=O)[C@H](C)N)[C@@H](C)O)[C@@H](C)O)C(=O)NCC(=O)O)[C@]1(C)O[C@H]1[C@H](C)[C@@H]1C[C@@](O)(NC(=O)O1)[C@H](OC)/C=C/C=C(\C)C2` [Compound 1], the pIC50 was 7.66 in the data set with HCT116, 8.13 with HeLa cells, 7.98 with FaDu and 7.22 in the data set on DLD-1 WT cells.

`COc1cc2cc(c1Cl)N(C)C(=O)C[C@H](OC(=O)[C@H](C)N(C)C(=O)CCS)C1(C)O[C@H]1[C@H](C)[C@@H]1C[C@@](O)(NC(=O)O1)[C@H](OC)/C=C/C=C(\C)C2` (stereo partly drawn) [R^2SH-1, [(1S,2R,3S,6S,16E,18E,20R,21S)-11-chloro-21-hydroxy-12,20-dimethoxy-2,5,9,16-tetramethyl-8,23-dioxo-4,24-dioxa-9,22-diazatetracyclo[19.3.1.110,14.03,5]hexacosa-10(26),11,13,16,18-pentaen-6-yl] (2S)-2-[methyl(3-sulfanylpropanoyl)amino]propanoate]: the pIC50 in the data set on HCT116 (Homo sapiens, HCT-116) was 8.37; in the data set on HeLa cells (Homo sapiens), 8.59; with FaDu (Homo sapiens), 8.55; in the data set on DLD-1 WT cells (Homo sapiens), 8.01.

Regarding `COc1cc2cc(c1Cl)N(C)C(=O)C[C@H](OC(=O)[C@H](C)N(C)C(=O)CCC(C)(C)SSC[C@H](NC(=O)[C@H](Cc1c[nH]c3ccccc13)NC(=O)[C@H](CC(C)C)NC(=O)[C@H](CC(C)C)NC(=O)[C@H](CC(=O)O)NC(=O)[C@H](CC(C)C)NC(=O)[C@H](CC(C)C)NC(=O)[C@H](CC(C)C)NC(=O)[C@@H](NC(=O)[C@H](CC(=O)O)NC(=O)[C@@H](NC(=O)[C@@H]1CCCN1C(=O)[C@H](Cc1ccccc1)NC(=O)[C@H](CC(C)C)NC(=O)[C@H](CC(C)C)NC(=O)[C@H](CC(=O)O)NC(=O)[C@H](CC(C)C)NC(=O)[C@H](Cc1ccc(O)cc1)NC(=O)[C@H](C)NC(=O)[C@H](CCCNC(=N)N)NC(=O)[C@H](Cc1c[nH]c3ccccc13)NC(=O)[C@@H]1CCCN1C(=O)[C@H](CC(N)=O)NC(=O)[C@H](CCC(N)=O)NC(=O)[C@H](CC(=O)O)NC(=O)[C@H](CC(=O)O)NC(=O)[C@H](C)N)[C@@H](C)O)[C@@H](C)O)C(=O)NCC(=O)O)[C@]1(C)O[C@H]1[C@H](C)[C@@H]1C[C@@](O)(NC(=O)O1)[C@H](OC)/C=C/C=C(\C)C2` [Compound 5], the “survival / systemic toxicity (Kaplan-Meier)” value in data set [1] is recorded as “safely delivers amounts of DM4 in vivo”.
